Assays:
human M2 receptor [1] = target: T1, human M2 receptor (Homo sapiens, UniProt P08172); type: cell-based; conditions: shift of acetylcholine dose-response curve (Allosteric EC50 shift); α >1 = positive cooperativity
T1 sequence (P08172 1-466): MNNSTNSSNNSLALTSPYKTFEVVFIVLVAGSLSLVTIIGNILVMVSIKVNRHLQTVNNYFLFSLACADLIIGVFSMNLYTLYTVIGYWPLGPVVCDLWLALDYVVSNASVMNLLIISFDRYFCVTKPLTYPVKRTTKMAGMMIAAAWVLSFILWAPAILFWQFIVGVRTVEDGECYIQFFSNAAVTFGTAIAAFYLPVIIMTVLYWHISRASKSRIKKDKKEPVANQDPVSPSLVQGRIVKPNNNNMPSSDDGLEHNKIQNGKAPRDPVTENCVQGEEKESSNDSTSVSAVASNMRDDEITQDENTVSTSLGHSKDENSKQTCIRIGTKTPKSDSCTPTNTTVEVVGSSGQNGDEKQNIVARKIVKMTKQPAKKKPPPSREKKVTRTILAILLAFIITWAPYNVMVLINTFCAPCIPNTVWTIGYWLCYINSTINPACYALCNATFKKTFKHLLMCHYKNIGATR

human M2 receptor [2] = target: T1, human M2 receptor; conditions: M2-GIRK1/4 reporter cells; for EC50: Receptor activity EC50, allosteric potency at EC20 acetylcholine, in some cases mean of two or more determinations; for Emax: read-out: Efficiency, boosting of the acetylcholine effect at EC20 acetylcholine concentration

CC(C)(C)[C@H](NC(=O)c1cn(-c2c(F)cc(F)cc2F)c2nc(N3C[C@@H](O)CC3=O)ccc2c1=O)C(F)(F)F [Example 504, 7-[(4S)-4-Hydroxy-2-oxopyrrolidin-1-yl]-4-oxo-N-[(2S)-1,1,1-trifluoro-3,3-dimethylbutan-2-yl]-1-(2,4,6-trifluorophenyl)-1,4-dihydro-1,8-naphthyridine-3-carboxamide]
Cooperativity (alpha factor) (human M2 receptor [1]): 47
EC50 (human M2 receptor [2]): 4 nM
Emax (human M2 receptor [2]): 100%

O=C(NC1(C(F)(F)F)CCC1)c1cn(-c2c(F)cc(F)cc2F)c2nc(N3C[C@@H](O)CC3=O)ccc2c1=O [Example 515, 7-[(4S)-4-Hydroxy-2-oxopyrrolidin-1-yl]-4-oxo-N-[1-(trifluoromethyl)cyclobutyl]-1-(2,4,6-trifluorophenyl)-1,4-dihydro-1,8-naphthyridine-3-carboxamide]
Cooperativity (alpha factor) (human M2 receptor [1]): 37
EC50 (human M2 receptor [2]): 12 nM
Emax (human M2 receptor [2]): 99.3%

CC(C)(NC(=O)c1cn(-c2c(F)cc(F)cc2F)c2nc(N3C[C@@H](O)CC3=O)ccc2c1=O)C(F)F [Example 516, N-(1,1-Difluoro-2-methylpropan-2-yl)-7-[(4S)-4-hydroxy-2-oxopyrrolidin-1-yl]-4-oxo-1-(2,4,6-trifluorophenyl)-1,4-dihydro-1,8-naphthyridine-3-carboxamide]
Cooperativity (alpha factor) (human M2 receptor [1]): 35
EC50 (human M2 receptor [2]): 20 nM
Emax (human M2 receptor [2]): 100%

CO[C@H]1CCN(c2ccc3c(=O)c(C(=O)N[C@@H](C4CC4)C(F)(F)F)cn(-c4c(F)cc(F)cc4F)c3n2)C1 [Example 535, N-[(1 S)-1-Cyclopropyl-2,2,2-trifluoroethyl]-7-[(3S)-3-methoxypyrrolidin-1-yl]-4-oxo-1-(2,4,6-trifluorophenyl)-1,4-dihydro-1,8-naphthyridine-3-carboxamide]
Cooperativity (alpha factor) (human M2 receptor [1]): 27
EC50 (human M2 receptor [2]): 7 nM
Emax (human M2 receptor [2]): 100%

CCN1CCCN(c2ccc3c(=O)c(C(=O)N[C@@H](C4CC4)C(F)(F)F)cn(-c4c(F)cc(F)cc4F)c3n2)C1=O [Example 539, N-[(1S)-1-Cyclopropyl-2,2,2-trifluoroethyl]-7-(3-ethyl-2-oxotetrahydropyrimidin-1(2H)-yl)-4-oxo-1-(2,4,6-trifluorophenyl)-1,4-dihydro-1,8-naphthyridine-3-carboxamide]
Cooperativity (alpha factor) (human M2 receptor [1]): 21
EC50 (human M2 receptor [2]): 7 nM
Emax (human M2 receptor [2]): 86.5%

CC(C)C[C@H](NC(=O)c1cn(-c2c(F)cc(F)cc2F)c2nc(N3CCNC3=O)ccc2c1=O)C(F)(F)F [Example 543, 4-Oxo-7-(2-oxoimidazolidin-1-yl)-N-[(2S)-1,1,1-trifluoro-4-methylpentan-2-yl)-1-(2,4,6-trifluorophenyl)-1,4-dihydro-1,8-naphthyridine-3-carboxamide]
Cooperativity (alpha factor) (human M2 receptor [1]): 28
EC50 (human M2 receptor [2]): 8 nM
Emax (human M2 receptor [2]): 100%

CC(C)C[C@H](NC(=O)c1cn(-c2c(F)cc(F)cc2F)c2nc(N3C[C@@H](O)[C@@H](O)C3)ccc2c1=O)C(F)(F)F [Example 573, 7-[(3R,4S)-3,4-Dihydroxypyrrolidin-1-yl]-4-oxo-N-[(2S)-1,1,1-trifluoro-4-methylpentan-2-yl]-1-(2,4,6-trifluorophenyl)-1,4-dihydro-1,8-naphthyridine-3-carboxamide]
Cooperativity (alpha factor) (human M2 receptor [1]): 57
EC50 (human M2 receptor [2]): 12 nM
Emax (human M2 receptor [2]): 100%

CC(C)C[C@@H](NC(=O)c1cn(-c2c(F)cc(F)cc2F)c2nc(N3C[C@@H](O)[C@@H](O)C3)ccc2c1=O)C(F)(F)F [Example 574, 7-[(3R,4S)-3,4-Dihydroxypyrrolidin-1-yl]-4-oxo-N-[(2R)-1,1,1-trifluoro-4-methylpentan-2-yl]-1-(2,4,6-trifluorophenyl)-1,4-dihydro-1,8-naphthyridine-3-carboxamide]
Cooperativity (alpha factor) (human M2 receptor [1]): 36
EC50 (human M2 receptor [2]): 12 nM
Emax (human M2 receptor [2]): 100%

COC(=O)N1CCN(c2ccc3c(=O)c(C(=O)Nc4c(Cl)cccc4Cl)cn(-c4c(F)cc(F)cc4F)c3n2)CC1 [Example 593, Methyl 4-{6-[(2,6-dichlorophenyl)carbamoyl]-5-oxo-8-(2,4,6-trifluorophenyl)-5,8-dihydro-1,8-naphthyridin-2-yl}piperazine-1-carboxylate]
Cooperativity (alpha factor) (human M2 receptor [1]): 29
EC50 (human M2 receptor [2]): 17 nM
Emax (human M2 receptor [2]): 89.5%

CC[C@H](NC(=O)c1cn(-c2c(F)cc(F)cc2F)c2nc(N3CCN(C(=O)OC)CC3)ccc2c1=O)C(F)(F)F [Example 595, Methyl 4-[5-oxo-6-{[(2S)-1,1,1-trifluorobutan-2-yl]carbamoyl}-8-(2,4,6-trifluorophenyl)-5,8-dihydro-1,8-naphthyridin-2-yl]piperazine-1-carboxylate]
Cooperativity (alpha factor) (human M2 receptor [1]): 36
EC50 (human M2 receptor [2]): 19 nM
Emax (human M2 receptor [2]): 94%

O=C(NC1(C(F)(F)F)CCC1)c1cn(-c2c(F)cc(F)cc2F)c2nc(N3CCNC3=O)ccc2c1=O [Example 596, 4-Oxo-7-(2-oxoimidazolidin-1-yl)-N-[1-(trifluoromethyl)cyclobutyl]-1-(2,4,6-trifluorophenyl)-1,4-dihydro-1,8-naphthyridine-3-carboxamide]
Cooperativity (alpha factor) (human M2 receptor [1]): 19
EC50 (human M2 receptor [2]): 21 nM
Emax (human M2 receptor [2]): 98.5%

CC[C@@H](NC(=O)c1cn(-c2c(F)cccc2F)c2nc(N3C[C@@H](O)[C@H](O)C3)ccc2c1=O)C(F)(F)F [Example 618, 1-(2,6-Difluorophenyl)-7-[(3R,4R)-3,4-dihydroxypyrrolidin-1-yl]-4-oxo-N-[(2R)-1,1,1-trifluorobutan-2-yl]-1,4-dihydro-1,8-naphthyridine-3-carboxamide]
Cooperativity (alpha factor) (human M2 receptor [1]): 30
EC50 (human M2 receptor [2]): 39 nM
Emax (human M2 receptor [2]): 99%

O=C(Nc1c(Cl)cccc1Cl)c1cn(-c2ccc(F)cc2F)c2nc(N3C[C@@H](O)[C@H](O)C3)ccc2c1=O [Example 631, N-(2,6-Dichlorophenyl)-1-(2,4-difluorophenyl)-7-[(3R,4R)-3,4-dihydroxypyrrolidin-1-yl]-4-oxo-1,4-dihydro-1,8-naphthyridine-3-carboxamide]
Cooperativity (alpha factor) (human M2 receptor [1]): 23
EC50 (human M2 receptor [2]): 49 nM
Emax (human M2 receptor [2]): 86%

CC(C)(NC(=O)c1cn(-c2c(F)cc(F)cc2F)c2nc(N3C[C@@H](O)[C@H](O)C3)ccc2c1=O)C(F)F [Example 634, N-(1,1-Difluoro-2-methylpropan-2-yl)-7-[(3R,4R)-3,4-dihydroxypyrrolidin-1-yl]-4-oxo-1-(2,4,6-trifluorophenyl)-1,4-dihydro-1,8-naphthyridine-3-carboxamide]
Cooperativity (alpha factor) (human M2 receptor [1]): 48
EC50 (human M2 receptor [2]): 54 nM
Emax (human M2 receptor [2]): 100%

CC[C@@H](NC(=O)c1cn(-c2ccc(F)cc2F)c2nc(N3C[C@@H](O)[C@@H](O)C3)ccc2c1=O)C(F)(F)F [Example 639, 1-(2,4-Difluorophenyl)-7-[(3R,4S)-3,4-dihydroxypyrrolidin-1-yl]-4-oxo-N-[(2R)-1,1,1-trifluorobutan-2-yl]-1,4-dihydro-1,8-naphthyridine-3-carboxamide]
Cooperativity (alpha factor) (human M2 receptor [1]): 25
EC50 (human M2 receptor [2]): 68 nM
Emax (human M2 receptor [2]): 96.5%

CC[C@@H](NC(=O)c1cn(-c2ccc(F)cc2F)c2nc(N3C[C@@H](O)[C@H](O)C3)ccc2c1=O)C(F)(F)F [Example 646, 1-(2,4-Difluorophenyl)-7-[(3R,4R)-3,4-dihydroxypyrrolidin-1-yl]-4-oxo-N-[(2R)-1,1,1-trifluorobutan-2-yl]-1,4-dihydro-1,8-naphthyridine-3-carboxamide]
Cooperativity (alpha factor) (human M2 receptor [1]): 30
EC50 (human M2 receptor [2]): 74 nM
Emax (human M2 receptor [2]): 100%

From patent US20190367516A1 (Bayer Pharma Aktiengesellschaft, priority 2015, published 2019)
